Measurements: PubChem BioAssay (NCI)
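These data come from cells grown in 96-well plates and exposed to compound for 48 hours at five concentrations. GI50 = concentration required for 50% inhibition of growth. At the TGI there is no net growth.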

Legend:
Experiment in all cases: DTP human tumour cell line panel, 48 h
[1] = test system: BT-549 breast
[2] = test system: RXF 393 renal
[3] = test system: OVCAR-5 ovarian
[4] = test system: NCI-H460 lung
[5] = test system: SF-268 CNS
[6] = test system: A549 NSCLC
[7] = test system: HL-60(TB) leukemia
[8] = test system: 786-0 renal
[9] = test system: LOX IMVI melanoma
[10] = test system: MDA-MB-231 breast
[11] = test system: UO-31 renal
[12] = test system: HCT-116 colon
[13] = test system: MOLT-4 leukemia
[14] = test system: SK-MEL-5 melanoma
[15] = test system: HT29 colon
[16] = test system: PC-3 prostate
[17] = test system: HS 578T breast
[18] = test system: SK-OV-3 ovarian
[19] = test system: ACHN renal
[20] = test system: SN12C renal
[21] = test system: NCI/ADR-RES ovarian
[22] = test system: CAKI-1 renal
[23] = test system: K-562 leukemia
[24] = test system: HCT-15 colon
[25] = test system: OVCAR-8 ovarian
[26] = test system: KM12 colon
[27] = test system: SF-295 CNS
[28] = test system: UACC-62 melanoma
[29] = test system: U251 CNS
[30] = test system: HCC-2998 colon
[31] = test system: HOP-62 NSCLC
[32] = test system: T-47D breast
[33] = test system: UACC-257 melanoma
[34] = test system: OVCAR-3 ovarian
[35] = test system: MDA-MB-435
[36] = test system: TK-10 renal
[37] = test system: SW-620 colon
[38] = test system: RPMI-8226 leukemia
[39] = test system: MALME-3M melanoma
[40] = test system: EKVX NSCLC
[41] = test system: NCI-H226 lung
[42] = test system: SNB-19 CNS
[43] = test system: SF-539 CNS
[44] = test system: CCRF-CEM leukemia
[45] = test system: MCF7 breast
[46] = test system: NCI-H23 lung
[47] = test system: OVCAR-4 ovarian
[48] = test system: NCI-H522 lung
[49] = test system: IGROV1 ovarian
[50] = test system: SNB-75 CNS
[51] = test system: HOP-92 NSCLC
[52] = test system: COLO 205 colon
[53] = test system: A498 renal
[54] = test system: SK-MEL-2 melanoma
[55] = test system: SK-MEL-28 melanoma
[56] = test system: DU-145 prostate

For `CCOC(=O)c1cnn(-c2ccnc3c(C(F)(F)F)cccc23)c1N`, the GI50 [1] was 70.7 µM, the TGI [1] was > 100 µM and the GI50 [2] was > 100 µM. The TGI [2] was > 100 µM, the GI50 [3] was > 100 µM and the TGI [3] was > 100 µM. The GI50 [4] was > 100 µM, the TGI [4] was > 100 µM and the GI50 [5] was > 100 µM. The TGI [5] was > 100 µM, the GI50 [6] was > 100 µM and the TGI [6] was > 100 µM. For the same compound, the GI50 [7] was > 100 µM, the TGI [7] was > 100 µM and the GI50 [8] was > 100 µM. The TGI [8] was > 100 µM, the GI50 [9] was > 100 µM and the TGI [9] was > 100 µM. The GI50 [10] was > 100 µM, the TGI [10] was > 100 µM and the GI50 [11] was > 100 µM. For the same compound, the TGI [11] was > 100 µM, the GI50 [12] was > 100 µM and the TGI [12] was > 100 µM. For the same compound, the GI50 [13] was > 100 µM, the TGI [13] was > 100 µM and the GI50 [14] was > 100 µM. The TGI [14] was > 100 µM, the GI50 [15] was > 100 µM and the TGI [15] was > 100 µM. For the same compound, the GI50 [16] was > 100 µM, the TGI [16] was > 100 µM and the GI50 [17] was 24.8 µM. The TGI [17] was > 100 µM, the GI50 [18] was > 100 µM and the TGI [18] was > 100 µM. The GI50 [19] was > 100 µM, the TGI [19] was > 100 µM and the GI50 [20] was > 100 µM. For the same compound, the TGI [20] was > 100 µM, the GI50 [21] was > 100 µM and the TGI [21] was > 100 µM. The GI50 [22] was > 100 µM, the TGI [22] was > 100 µM and the GI50 [23] was > 100 µM. For the same compound, the TGI [23] was > 100 µM, the GI50 [24] was > 100 µM and the TGI [24] was > 100 µM. The GI50 [25] was > 100 µM, the TGI [25] was > 100 µM and the GI50 [26] was > 100 µM. The TGI [26] was > 100 µM, the GI50 [27] was > 100 µM and the TGI [27] was > 100 µM. The GI50 [28] was > 100 µM, the TGI [28] was > 100 µM and the GI50 [29] was > 100 µM. For the same compound, the TGI [29] was > 100 µM, the GI50 [30] was > 100 µM and the TGI [30] was > 100 µM. For the same compound, the GI50 [31] was > 100 µM, the TGI [31] was > 100 µM and the GI50 [32] was > 100 µM. The TGI [32] was > 100 µM, the GI50 [33] was > 100 µM and the TGI [33] was > 100 µM. The GI50 [34] was > 100 µM, the TGI [34] was > 100 µM and the GI50 [35] was > 100 µM. For the same compound, the TGI [35] was > 100 µM, the GI50 [36] was > 100 µM and the TGI [36] was > 100 µM. The GI50 [37] was > 100 µM, the TGI [37] was > 100 µM and the GI50 [38] was 98.4 µM. The TGI [38] was > 100 µM, the GI50 [39] was > 100 µM and the TGI [39] was > 100 µM. The GI50 [40] was > 100 µM, the TGI [40] was > 100 µM and the GI50 [41] was > 100 µM. The TGI [41] was > 100 µM, the GI50 [42] was > 100 µM and the TGI [42] was > 100 µM. The GI50 [43] was > 100 µM, the TGI [43] was > 100 µM and the GI50 [44] was > 100 µM. The TGI [44] was > 100 µM, the GI50 [45] was > 100 µM and the TGI [45] was > 100 µM. The GI50 [46] was > 100 µM, the TGI [46] was > 100 µM and the GI50 [47] was > 100 µM. For the same compound, the TGI [47] was > 100 µM, the GI50 [48] was > 100 µM and the TGI [48] was > 100 µM. For the same compound, the GI50 [49] was > 100 µM, the TGI [49] was > 100 µM and the GI50 [50] was 51.7 µM. The TGI [50] was > 100 µM, the GI50 [51] was 29.6 µM and the TGI [51] was > 100 µM. The GI50 [52] was > 100 µM, the TGI [52] was > 100 µM and the GI50 [53] was > 100 µM. For the same compound, the TGI [53] was > 100 µM, the GI50 [54] was > 100 µM and the TGI [54] was > 100 µM. The GI50 [55] was > 100 µM, the TGI [55] was > 100 µM and the GI50 [56] was > 100 µM. The TGI [56] was > 100 µM.
